Source: patent US7132252B2, “Methods for detecting the interaction of compounds with cytochrome P450 using optical molecular sensors” (Invitrogen Corporation, priority 1998, dated 2006)
Where “and” joins values, the source holds several entries; their conditions need not be identical. Equal entries are not always repeated.

Molecular target: CYP3A4 (Homo sapiens, UniProt P08684)
Assay: Kinetic properties of fluorogenic substrates with CYP 3A4
Assay type: biochemical
Conditions: not given
From the text: For further understanding these terms in the context of this invention, attention is directed to FIG. 4 and the analysis of FIG. 4.
(§1) (respectively, MFC and MR).

Sequence of CYP3A4 (P08684 whole entry): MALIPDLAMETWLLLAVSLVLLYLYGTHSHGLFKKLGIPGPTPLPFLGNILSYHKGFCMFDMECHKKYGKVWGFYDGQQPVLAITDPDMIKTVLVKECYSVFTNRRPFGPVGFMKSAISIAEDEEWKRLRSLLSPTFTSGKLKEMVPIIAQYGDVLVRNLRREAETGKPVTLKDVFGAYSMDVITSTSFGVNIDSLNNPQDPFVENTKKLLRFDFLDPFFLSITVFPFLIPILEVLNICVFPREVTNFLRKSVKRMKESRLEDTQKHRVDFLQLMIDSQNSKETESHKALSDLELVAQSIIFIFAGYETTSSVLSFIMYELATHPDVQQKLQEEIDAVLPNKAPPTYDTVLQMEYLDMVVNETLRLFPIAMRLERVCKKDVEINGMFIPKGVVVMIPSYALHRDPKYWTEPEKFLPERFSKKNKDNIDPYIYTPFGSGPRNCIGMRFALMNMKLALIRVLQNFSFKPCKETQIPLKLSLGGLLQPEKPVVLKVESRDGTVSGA

Structure (SMILES) | type of kinetics
O=c1cc(C(F)(F)F)c2ccc(OCc3ccccc3)cc2o1 [BFC, 7-Benzyloxy-4-trifluoromethylcoumarin, reference compound] | linear
CCOCOc1ccc2nc3ccc(=O)cc-3oc2c1 [EOMR] | Michaelis-Menten

Same assay, conditions: turnover rate at 1.25 uM substrate; — = too low to quantify

Structure (SMILES) | v (1.25 uM) [min⁻¹]
COCOc1ccc2nc3ccc(=O)cc-3oc2c1 [MOMR] | 0.0083
CC1(C)C2=C(Cl)C(=O)C(Cl)=CC2=Nc2ccc(OCOCc3ccccc3)cc21 [BOM-DDAO] | 0.4402
O=c1cc(C(F)(F)F)c2ccc(OCc3ccccc3)cc2o1 [BFC, 7-Benzyloxy-4-trifluoromethylcoumarin, reference compound] | 0.04
O=C(OCc1ccccc1)c1c2oc3cc(OCc4ccccc4)ccc3nc-2ccc1=O [BRCBE] | 0.1992
CCOCOc1ccc2nc3ccc(=O)cc-3oc2c1 [EOMR] | 0.03
CCCCCCCCOCOc1ccc2cc(C#N)c(=O)oc2c1 [OOMCC] | 0.2274

Same assay, conditions: turnover rate at 10 uM substrate; — = too low to quantify

Structure (SMILES) | v (10 uM) [min⁻¹]
COCOc1ccc2nc3ccc(=O)cc-3oc2c1 [MOMR] | 0.0338
CC1(C)C2=C(Cl)C(=O)C(Cl)=CC2=Nc2ccc(OCOCc3ccccc3)cc21 [BOM-DDAO] | 4.2041
O=c1cc(C(F)(F)F)c2ccc(OCc3ccccc3)cc2o1 [BFC, 7-Benzyloxy-4-trifluoromethylcoumarin, reference compound] | 0.81
O=C(OCc1ccccc1)c1c2oc3cc(OCc4ccccc4)ccc3nc-2ccc1=O [BRCBE] | 0.6241
CCOCOc1ccc2nc3ccc(=O)cc-3oc2c1 [EOMR] | 0.10
CCCCCCCCOCOc1ccc2cc(C#N)c(=O)oc2c1 [OOMCC] | 0.961

Molecular target: CYP2C19 (Homo sapiens, UniProt P33261)
Assay: Kinetic properties of fluorogenic substrates with CYP 2C19
Assay type: biochemical
Conditions: not given

Sequence of CYP2C19 (P33261 whole entry): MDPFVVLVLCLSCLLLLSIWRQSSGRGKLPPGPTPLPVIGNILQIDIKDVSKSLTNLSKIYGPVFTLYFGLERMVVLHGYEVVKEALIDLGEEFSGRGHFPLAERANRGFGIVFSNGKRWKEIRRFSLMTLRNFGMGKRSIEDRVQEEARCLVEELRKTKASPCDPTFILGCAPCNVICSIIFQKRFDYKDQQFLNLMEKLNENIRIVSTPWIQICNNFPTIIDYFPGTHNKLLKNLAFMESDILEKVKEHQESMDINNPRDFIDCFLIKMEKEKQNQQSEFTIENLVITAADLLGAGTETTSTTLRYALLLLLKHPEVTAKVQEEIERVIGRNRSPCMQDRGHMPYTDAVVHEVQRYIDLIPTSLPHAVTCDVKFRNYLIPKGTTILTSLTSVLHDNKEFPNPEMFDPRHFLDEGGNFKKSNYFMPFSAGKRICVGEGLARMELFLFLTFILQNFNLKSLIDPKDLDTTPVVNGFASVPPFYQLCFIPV

Structure (SMILES) | type of kinetics
N#Cc1cc2ccc(OCc3ccccc3)cc2oc1=O [BCC, 7-Benzyloxy-3-cyanocoumarin, reference compound] | Michaelis-Menten
COc1ccc2cc(C#N)c(=O)oc2c1 [3CMC, 3-cyano-7-methoxycoumarin, reference compound] | linear
COc1ccc(COc2ccc3nc4ccc(=O)cc-4oc3c2)cc1 [MOBR, Paramethoxybenzylresorufin] | not MMK

Same assay, conditions: turnover rate at 1.25 uM substrate; — = too low to quantify

Structure (SMILES) | v (1.25 uM) [min⁻¹]
N#Cc1cc2ccc(OCc3ccccc3)cc2oc1=O [BCC, 7-Benzyloxy-3-cyanocoumarin, reference compound] | 0.02
COc1ccc2cc(C#N)c(=O)oc2c1 [3CMC, 3-cyano-7-methoxycoumarin, reference compound] | 0.01
COc1ccc(COc2ccc3nc4ccc(=O)cc-4oc3c2)cc1 [MOBR, Paramethoxybenzylresorufin] | 1.26
COCOc1ccc2nc3ccc(=O)cc-3oc2c1 [MOMR] | 0.06
CCCCCCCCOCOc1ccc2cc(C#N)c(=O)oc2c1 [OOMCC] | 0.179

Same assay, conditions: turnover rate at 10 uM substrate; — = too low to quantify

Structure (SMILES) | v (10 uM) [min⁻¹]
N#Cc1cc2ccc(OCc3ccccc3)cc2oc1=O [BCC, 7-Benzyloxy-3-cyanocoumarin, reference compound] | 0.06
COc1ccc2cc(C#N)c(=O)oc2c1 [3CMC, 3-cyano-7-methoxycoumarin, reference compound] | 0.07
COc1ccc(COc2ccc3nc4ccc(=O)cc-4oc3c2)cc1 [MOBR, Paramethoxybenzylresorufin] | 0.69
COCOc1ccc2nc3ccc(=O)cc-3oc2c1 [MOMR] | 0.062
CCCCCCCCOCOc1ccc2cc(C#N)c(=O)oc2c1 [OOMCC] | 1.043

Molecular target: CYP2C9 (Homo sapiens, UniProt P11712)
Assay: Kinetic properties of fluorogenic substrates with CYP 2C9
Assay type: biochemical
Conditions: not given

Sequence of CYP2C9 (P11712 whole entry): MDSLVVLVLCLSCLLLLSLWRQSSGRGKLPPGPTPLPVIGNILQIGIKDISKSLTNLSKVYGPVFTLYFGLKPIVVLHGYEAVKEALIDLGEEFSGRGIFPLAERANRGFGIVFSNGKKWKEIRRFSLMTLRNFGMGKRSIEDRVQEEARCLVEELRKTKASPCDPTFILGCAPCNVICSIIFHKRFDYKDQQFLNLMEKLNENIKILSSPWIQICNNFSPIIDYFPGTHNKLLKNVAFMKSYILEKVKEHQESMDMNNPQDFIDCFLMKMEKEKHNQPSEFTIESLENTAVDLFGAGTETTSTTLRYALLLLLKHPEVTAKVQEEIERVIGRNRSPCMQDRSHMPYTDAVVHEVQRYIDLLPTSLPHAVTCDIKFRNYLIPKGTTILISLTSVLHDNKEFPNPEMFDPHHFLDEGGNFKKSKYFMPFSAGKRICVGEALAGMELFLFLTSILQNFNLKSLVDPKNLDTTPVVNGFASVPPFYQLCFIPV

Structure (SMILES) | type of kinetics
COc1ccc2cc(C#N)c(=O)oc2c1 [3CMC, 3-cyano-7-methoxycoumarin, reference compound] | linear
COc1ccc(COc2ccc3nc4ccc(=O)cc-4oc3c2)cc1 [MOBR, Paramethoxybenzylresorufin] | Michaelis-Menten

Same assay, conditions: turnover rate at 1.25 uM substrate; — = too low to quantify

Structure (SMILES) | v (1.25 uM) [min⁻¹]
N#Cc1cc2ccc(OCc3ccccc3)cc2oc1=O [BCC, 7-Benzyloxy-3-cyanocoumarin, reference compound] | 0.00
COc1ccc2cc(C#N)c(=O)oc2c1 [3CMC, 3-cyano-7-methoxycoumarin, reference compound] | 0.00
COc1ccc(COc2ccc3nc4ccc(=O)cc-4oc3c2)cc1 [MOBR, Paramethoxybenzylresorufin] | 0.02

Same assay, conditions: turnover rate at 10 uM substrate; — = too low to quantify

Structure (SMILES) | v (10 uM) [min⁻¹]
N#Cc1cc2ccc(OCc3ccccc3)cc2oc1=O [BCC, 7-Benzyloxy-3-cyanocoumarin, reference compound] | 0.00
COc1ccc2cc(C#N)c(=O)oc2c1 [3CMC, 3-cyano-7-methoxycoumarin, reference compound] | 0.04
COc1ccc(COc2ccc3nc4ccc(=O)cc-4oc3c2)cc1 [MOBR, Paramethoxybenzylresorufin] | 0.02

Molecular target: T1, CYP 2B6 (Homo sapiens, UniProt P20813)
T1 sequence (P20813 1-491): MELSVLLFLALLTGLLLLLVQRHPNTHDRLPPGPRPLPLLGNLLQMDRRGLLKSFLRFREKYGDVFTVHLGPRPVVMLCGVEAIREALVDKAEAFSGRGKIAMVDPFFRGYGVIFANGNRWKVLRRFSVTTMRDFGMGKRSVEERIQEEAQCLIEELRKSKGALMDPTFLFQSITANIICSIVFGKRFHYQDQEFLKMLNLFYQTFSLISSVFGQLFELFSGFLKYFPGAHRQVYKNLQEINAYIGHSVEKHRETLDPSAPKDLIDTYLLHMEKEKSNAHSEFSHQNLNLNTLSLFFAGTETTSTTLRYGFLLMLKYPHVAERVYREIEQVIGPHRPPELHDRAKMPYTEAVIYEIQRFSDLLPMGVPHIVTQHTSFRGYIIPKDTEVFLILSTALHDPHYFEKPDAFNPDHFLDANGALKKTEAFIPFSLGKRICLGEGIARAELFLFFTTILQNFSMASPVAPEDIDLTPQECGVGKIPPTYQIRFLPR
Assay: Kinetic properties of fluorogenic substrates with CYP 2B6
Assay type: biochemical
Conditions: not given

Structure (SMILES) | type of kinetics
N#Cc1cc2ccc(OCc3ccccc3)cc2oc1=O [BCC, 7-Benzyloxy-3-cyanocoumarin, reference compound] | Michaelis-Menten
COc1ccc(COc2ccc3nc4ccc(=O)cc-4oc3c2)cc1 [MOBR, Paramethoxybenzylresorufin] | Michaelis-Menten

Same assay, conditions: human, CYP 2B6 isozyme; — = too low to quantify

Structure (SMILES) | Km [µM]
N#Cc1cc2ccc(OCc3ccccc3)cc2oc1=O [BCC, 7-Benzyloxy-3-cyanocoumarin, reference compound] | 1.3
COc1ccc(COc2ccc3nc4ccc(=O)cc-4oc3c2)cc1 [MOBR, Paramethoxybenzylresorufin] | 0.01

Same assay, conditions: turnover rate at 1.25 uM substrate; — = too low to quantify

Structure (SMILES) | v (1.25 uM) [min⁻¹]
N#Cc1cc2ccc(OCc3ccccc3)cc2oc1=O [BCC, 7-Benzyloxy-3-cyanocoumarin, reference compound] | 0.04
COc1ccc(COc2ccc3nc4ccc(=O)cc-4oc3c2)cc1 [MOBR, Paramethoxybenzylresorufin] | 0.08

Same assay, conditions: turnover rate at 10 uM substrate; — = too low to quantify

Structure (SMILES) | v (10 uM) [min⁻¹]
N#Cc1cc2ccc(OCc3ccccc3)cc2oc1=O [BCC, 7-Benzyloxy-3-cyanocoumarin, reference compound] | 0.07
COc1ccc(COc2ccc3nc4ccc(=O)cc-4oc3c2)cc1 [MOBR, Paramethoxybenzylresorufin] | 0.10

Same assay, conditions: — = too low to quantify

Structure (SMILES) | kcat [s⁻¹]
N#Cc1cc2ccc(OCc3ccccc3)cc2oc1=O [BCC, 7-Benzyloxy-3-cyanocoumarin, reference compound] | 0.0017
COc1ccc(COc2ccc3nc4ccc(=O)cc-4oc3c2)cc1 [MOBR, Paramethoxybenzylresorufin] | 0.0067

Molecular target: CYP2D6 (Homo sapiens, UniProt P10635)
Assay: Kinetic properties of fluorogenic substrates with CYP 2D6
Assay type: biochemical
Conditions: not given
From the text: as §1

Sequence of CYP2D6 (P10635 whole entry): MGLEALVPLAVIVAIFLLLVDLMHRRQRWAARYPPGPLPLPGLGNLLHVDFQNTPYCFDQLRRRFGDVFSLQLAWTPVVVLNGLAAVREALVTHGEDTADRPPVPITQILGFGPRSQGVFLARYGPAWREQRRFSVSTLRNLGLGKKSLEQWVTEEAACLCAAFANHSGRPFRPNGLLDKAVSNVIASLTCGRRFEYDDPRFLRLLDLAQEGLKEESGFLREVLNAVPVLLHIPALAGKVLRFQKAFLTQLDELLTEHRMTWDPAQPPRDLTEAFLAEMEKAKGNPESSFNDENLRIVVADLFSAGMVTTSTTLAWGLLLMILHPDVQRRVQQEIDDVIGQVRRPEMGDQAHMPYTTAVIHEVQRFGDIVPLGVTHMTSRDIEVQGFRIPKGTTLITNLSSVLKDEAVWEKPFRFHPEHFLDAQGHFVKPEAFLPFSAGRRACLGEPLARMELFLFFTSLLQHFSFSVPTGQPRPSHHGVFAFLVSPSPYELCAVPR

Structure (SMILES) | type of kinetics
COc1ccc(COc2ccc3nc4ccc(=O)cc-4oc3c2)cc1 [MOBR, Paramethoxybenzylresorufin] | Michaelis-Menten

Same assay, conditions: turnover rate at 1.25 uM substrate; — = too low to quantify

Structure (SMILES) | v (1.25 uM)
COc1ccc(COc2ccc3nc4ccc(=O)cc-4oc3c2)cc1 [MOBR, Paramethoxybenzylresorufin] | 0.0185 min⁻¹ and 0.02 min⁻¹
COCOc1ccc2nc3ccc(=O)cc-3oc2c1 [MOMR] | 0.03396 min⁻¹

Same assay, conditions: turnover rate at 10 uM substrate; — = too low to quantify

Structure (SMILES) | v (10 uM)
COc1ccc(COc2ccc3nc4ccc(=O)cc-4oc3c2)cc1 [MOBR, Paramethoxybenzylresorufin] | 0.0409 min⁻¹ and 0.04 min⁻¹
COCOc1ccc2nc3ccc(=O)cc-3oc2c1 [MOMR] | 0.2146 min⁻¹
